Test results as given in patent EP4122461A1 (priority 2021, dated 2023).
pIC50: −log10 of the molar value.

Tests used:
[1] = system: SARS-CoV-2 isolate hCoV-19/Germany/FI1103201/2020; type: cell-based; conditions: PCLS from a single donor; Fig. 1C
[2] = system: SARS-2-S-driven cell entry; type: cell-based, SARS-CoV-2
[3] = blood and urine; cited from earlier work
[4] = in vivo; cited from earlier work
[5] = across a 100-fold dose range; cohort of healthy subjects; cited from earlier work

| SMILES | inhibitory effects in human PCLS [1] | pIC50 [2] | stability of ester and amide groups [3] | plasma distribution and elimination [4] | tolerability [5] | SARS-CoV-2 cell entry is inhibited [2] |
| --- | --- | --- | --- | --- | --- | --- |
| CN(C)C(=O)COC(=O)Cc1ccc(OC(=O)c2ccc(NC(=N)N)cc2)cc1 [Camostat, camostat] | comparable | 6.82 |  |  |  |  |
| COC(=O)[C@H](Cc1cccc(C(=N)N)c1)[C@@H](C)NC(=O)c1ccc(-c2cc[n+]([O-])cc2)cc1 [Otamixaban, otamixaban] | comparable | 4.73 | stable | rapid plasma distribution and elimination | well tolerated | 36% |
| N=C(N)c1ccc2cc(OC(=O)c3ccc(N=C(N)N)cc3)ccc2c1 [Nafamostat, nafamostat] |  | 7.93 |  |  |  |  |
